ChEMBL document CHEMBL1641582, “Synthesis and in vitro evaluation of 2-amino-4-N-piperazinyl-6-(3,4-dimethoxyphenyl)-pteridines as dual immunosuppressive and anti-inflammatory agents” (Bioorg Med Chem Lett, 2011)

Key:
[1] = Immunosuppressive activity in human T cells assessed as inhibition of LFA1-mediated cell proliferation by mixed lymphocyte reaction assay; format: functional, cell-based
PBMC = assay: Antiinflammatory activity in human PBMC assessed as inhibition of LPS-induced TNFalpha production; format: functional, cell-based

## CCOc1nc(N)nc2ncc(-c3ccc(F)c(F)c3)nc12
[1]
  IC50: > 10 µM
PBMC
  IC50: > 10 µM

## COc1ccc(-c2cnc3nc(N)nc(NCCc4ccccc4)c3n2)cc1OC
[1]
  IC50: 6 µM
PBMC
  IC50: 7.1 µM

## COc1ccc(-c2cnc3nc(N)nc(NC4CCCC4)c3n2)cc1OC
[1]
  IC50: 0.8 µM
PBMC
  IC50: 0.6 µM

## COc1ccc(-c2cnc3nc(N)nc(N4CCN(C(=O)Nc5ccc(F)cc5)CC4)c3n2)cc1OC
[1]
  IC50: 0.007 µM
PBMC
  IC50: 0.51 µM

## CC(C)Oc1nc(N)nc2ncc(-c3ccc(F)c(F)c3)nc12
[1]
  IC50: 10 µM
PBMC
  IC50: 6.6 µM

## CC(C)Oc1nc(N)nc2ncc(-c3ccc(C(F)(F)F)cc3)nc12
[1]
  IC50: > 10 µM
PBMC
  IC50: 9.1 µM

## CCOc1nc(N)nc2ncc(-c3ccc(Cl)c(Cl)c3)nc12
[1]
  IC50: > 10 µM
PBMC
  IC50: > 10 µM

## COc1ccc(-c2cnc3nc(N)nc(N4CCC(C)CC4)c3n2)cc1OC
[1]
  IC50: 0.8 µM
PBMC
  IC50: 0.3 µM

## COc1ccc(-c2cnc3nc(N)nc(N4CCN(C(=O)Nc5ccc(C#N)cc5)CC4)c3n2)cc1OC
[1]
  IC50: 0.074 µM
PBMC
  IC50: 0.63 µM

## COc1ccc(-c2cnc3nc(N)nc(N4CCN(Cc5ccc(C(C)(C)C)cc5)CC4)c3n2)cc1OC
[1]
  IC50: 4.3 µM
PBMC
  IC50: 0.7 µM

## COc1ccc(-c2cnc3nc(N)nc(N4CCSCC4)c3n2)cc1OC
[1]
  IC50: 0.4 µM
PBMC
  IC50: 0.5 µM

## COc1ccc(-c2cnc3nc(N)nc(N4CCN(c5cc(Cl)cc(Cl)c5)CC4)c3n2)cc1OC
[1]
  IC50: 3.4 µM
PBMC
  IC50: 0.5 µM

## COc1ccc(-c2cnc3nc(N)nc(N4CCN(Cc5ccccc5)CC4)c3n2)cc1OC
PBMC
  IC50: 0.09 µM

## COc1ccc(-c2cnc3nc(N)nc(N4CCN(C(=O)CCc5ccccc5)CC4)c3n2)cc1OC
[1]
  IC50: 0.1 µM
PBMC
  IC50: 0.01 µM

## COc1ccc(-c2cnc3nc(N)nc(N4CCN(C(=O)NCc5ccc(F)cc5)CC4)c3n2)cc1OC
[1]
  IC50: 0.037 µM
PBMC
  IC50: 0.7 µM

## COc1ccc(-c2cnc3nc(N)nc(N4CCN(c5ccc(C)cc5)CC4)c3n2)cc1OC
[1]
  IC50: 0.3 µM
PBMC
  IC50: 0.01 µM

## COc1ccc(-c2cnc3nc(N)nc(N4CCN(C(=O)NCc5ccccc5)CC4)c3n2)cc1OC
[1]
  IC50: 0.018 µM

## CCOc1nc(N)nc2ncc(-c3ccc(OC)cc3)nc12
[1]
  IC50: > 10 µM
PBMC
  IC50: 4.5 µM

## Cc1ccc(-c2cnc3nc(N)nc(OC(C)C)c3n2)cc1C
[1]
  IC50: 10 µM
PBMC
  IC50: 6.7 µM

## CCOc1nc(N)nc2ncc(-c3ccc(CC)cc3)nc12
[1]
  IC50: 8.2 µM
PBMC
  IC50: 8.5 µM

## COc1ccc(-c2cnc3nc(N)nc(N4CCN(C(=O)Nc5ccccc5)CC4)c3n2)cc1OC
[1]
  IC50: 0.0034 µM
PBMC
  IC50: 0.09 µM

## CCOc1nc(N)nc2ncc(-c3ccc(C#N)cc3)nc12
[1]
  IC50: > 10 µM
PBMC
  IC50: > 10 µM

## COc1ccc(-c2cnc3nc(N)nc(N4CCN(C(=O)Nc5cccc(C)c5)CC4)c3n2)cc1OC
[1]
  IC50: 0.007 µM
PBMC
  IC50: 0.1 µM

## COc1ccc(-c2cnc3nc(N)nc(N4CCN(C(=O)COc5ccccc5)CC4)c3n2)cc1OC
[1]
  IC50: 0.004 µM
PBMC
  IC50: 0.08 µM

## COc1ccc(-c2cnc3nc(N)nc(N4CCN(C(=O)Nc5ccc(C)cc5)CC4)c3n2)cc1OC
[1]
  IC50: 0.0008 µM
PBMC
  IC50: 0.43 µM

## COc1ccc(-c2cnc3nc(N)nc(N4CCN(c5ccccc5)CC4)c3n2)cc1OC
[1]
  IC50: 0.4 µM
PBMC
  IC50: 0.05 µM

## CCOc1nc(N)nc2ncc(-c3ccc(C(F)(F)F)cc3)nc12
[1]
  IC50: 10 µM
PBMC
  IC50: > 10 µM

## CC(C)Oc1nc(N)nc2ncc(-c3ccc(C#N)cc3)nc12
[1]
  IC50: > 10 µM
PBMC
  IC50: 6.3 µM

## COc1ccc(-c2cnc3nc(N)nc(NCc4cccs4)c3n2)cc1OC
[1]
  IC50: 4.1 µM
PBMC
  IC50: 7.2 µM

## COc1ccc(-c2cnc3nc(N)nc(NCc4ccccc4)c3n2)cc1OC
[1]
  IC50: 13 µM
PBMC
  IC50: 6.5 µM

## COc1ccc(-c2cnc3nc(N)nc(N4CCOCC4)c3n2)cc1OC
[1]
  IC50: 0.1 µM
PBMC
  IC50: 0.4 µM

## CCOc1ccc(-c2cnc3nc(N)nc(OC(C)C)c3n2)cc1
[1]
  IC50: 10 µM
PBMC
  IC50: 10 µM

## COc1ccc(-c2cnc3nc(N)nc(N4CCN(C(=O)c5ccccc5)CC4)c3n2)cc1OC
[1]
  IC50: 0.4 µM
PBMC
  IC50: 0.4 µM

## COc1ccc(-c2cnc3nc(N)nc(N4CCN(c5ccc(F)cc5)CC4)c3n2)cc1OC
[1]
  IC50: 0.1 µM
PBMC
  IC50: 0.05 µM

## COc1ccc(-c2cnc3nc(N)nc(OC(C)C)c3n2)cc1OC
[1]
  IC50: 0.4 µM
PBMC
  IC50: 2.3 µM

## CCOc1nc(N)nc2ncc(-c3cccc(OC)c3)nc12
[1]
  IC50: 8.3 µM
PBMC
  IC50: 10 µM

## COc1ccc(-c2cnc3nc(N)nc(OC(C)C)c3n2)cc1
[1]
  IC50: > 10 µM
PBMC
  IC50: 6.2 µM

## COc1ccc(-c2cnc3nc(N)nc(N4CCN(Cc5c(Cl)cccc5Cl)CC4)c3n2)cc1OC
[1]
  IC50: 7.6 µM
PBMC
  IC50: 0.7 µM

## COc1ccc(-c2cnc3nc(N)nc(NC(C)C)c3n2)cc1OC
[1]
  IC50: 0.6 µM
PBMC
  IC50: 0.3 µM

## COc1ccc(-c2cnc3nc(N)nc(N4CCN(Cc5ccccc5F)CC4)c3n2)cc1OC
[1]
  IC50: 0.7 µM
PBMC
  IC50: 0.2 µM

## COc1ccc(-c2cnc3nc(N)nc(N4CCN(C(=O)COc5ccc(Cl)cc5)CC4)c3n2)cc1OC
[1]
  IC50: 0.0005 µM
PBMC
  IC50: 0.077 µM
